# Results published in ChEMBL document CHEMBL1201862, “PubChem BioAssay data set” (2004).
#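 In this assay, cells in 96-well plates receive the compound at five concentrations for 48 hours. Endpoints are linearly interpolated between the surrounding concentrations. Here, GI50 denotes the concentration required for 50% inhibition of growth.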 Active and inactive are the calls of the source. No stated cut-off is given here; in the data, active = GI50 up to about 1.1 µM and inactive = higher.
# How the values were obtained:
# Assay in all cases: growth of human tumour cells (NCI), 48 h
# [1] = test system: UACC-257
# [2] = test system: DU-145
# [3] = test system: RXF 393
# [4] = test system: A549
# [5] = test system: SNB-75
# [6] = test system: HOP-62
# [7] = test system: SF-268
# [8] = test system: SF-295
# [9] = test system: T47D
# [10] = test system: K562
# [11] = test system: 786-0
# [12] = test system: HOP-92
# [13] = test system: A498
# [14] = test system: SNB-19
# [15] = test system: NCI-H522
# [16] = test system: SN12C
# [17] = test system: HT-29
# [18] = test system: RPMI-8226
# [19] = test system: EKVX
# [20] = test system: Malme-3M
# [21] = test system: CCRF-CEM
# [22] = test system: COLO 205
# [23] = test system: NCI-H226
# [24] = test system: SW-620
# [25] = test system: TK-10
# [26] = test system: SK-MEL-2
# [27] = test system: MDA-N
# [28] = test system: KM12
# [29] = test system: SR
# [30] = test system: CAKI-1
# [31] = test system: OVCAR-8
# [32] = test system: SF-539
# [33] = test system: UACC-62
# [34] = test system: M14
# [35] = test system: IGROV-1
# [36] = test system: BT-549
# [37] = test system: NCI/ADR-RES
# [38] = test system: MDA-MB-435
# [39] = test system: OVCAR-5
# [40] = test system: HL-60
# [41] = test system: NCI-H23
# [42] = test system: OVCAR-4
# [43] = test system: MOLT-4
# [44] = test system: SK-OV-3
# [45] = test system: Hs-578T
# [46] = test system: MDA-MB-231
# [47] = test system: U-251
# [48] = test system: PC-3
# [49] = test system: UO-31
# [50] = test system: SK-MEL-5
# [51] = test system: MCF7
# [52] = test system: SK-MEL-28
# [53] = test system: ACHN
# [54] = test system: NCI-H460
# [55] = test system: HCT-15
# [56] = test system: OVCAR-3
# [57] = test system: HCC 2998
# [58] = test system: HCT-116
# [59] = test system: LOX IMVI
structure (smiles),measurement,setting,value
COC(=O)C1=C(O)C(C(=O)OC)C2CC(=O)CC1C2(C)C (stereo not given),GI50,[1],> 100 µM (inactive)
same,GI50,[2],> 100 µM (inactive)
same,GI50,[3],> 100 µM (inactive)
same,GI50,[4],> 100 µM (inactive)
same,GI50,[5],88.9 µM (inactive)
same,GI50,[6],> 100 µM (inactive)
same,GI50,[7],> 100 µM (inactive)
same,GI50,[8],> 100 µM (inactive)
same,GI50,[9],> 100 µM (inactive)
same,GI50,[10],> 100 µM (inactive)
same,GI50,[11],> 100 µM (inactive)
same,GI50,[12],> 100 µM (inactive)
same,GI50,[13],> 100 µM (inactive)
same,GI50,[14],> 100 µM (inactive)
same,GI50,[15],> 100 µM (inactive)
same,GI50,[16],> 100 µM (inactive)
same,GI50,[17],> 100 µM (inactive)
same,GI50,[18],> 100 µM (inactive)
same,GI50,[19],> 100 µM (inactive)
same,GI50,[20],> 100 µM (inactive)
same,GI50,[21],> 100 µM (inactive)
same,GI50,[22],> 100 µM (inactive)
same,GI50,[23],> 100 µM (inactive)
same,GI50,[24],> 100 µM (inactive)
same,GI50,[25],> 100 µM (inactive)
same,GI50,[26],> 100 µM (inactive)
same,GI50,[27],> 100 µM (inactive)
same,GI50,[28],> 100 µM (inactive)
same,GI50,[29],> 100 µM (inactive)
same,GI50,[30],> 100 µM (inactive)
same,GI50,[31],> 100 µM (inactive)
same,GI50,[32],> 100 µM (inactive)
same,GI50,[33],> 100 µM (inactive)
same,GI50,[34],> 100 µM (inactive)
same,GI50,[35],> 100 µM (inactive)
same,GI50,[36],> 100 µM (inactive)
same,GI50,[37],> 100 µM (inactive)
same,GI50,[38],> 100 µM (inactive)
same,GI50,[39],> 100 µM (inactive)
same,GI50,[40],> 100 µM (inactive)
same,GI50,[41],> 100 µM (inactive)
same,GI50,[42],> 100 µM (inactive)
same,GI50,[43],> 100 µM (inactive)
same,GI50,[44],> 100 µM (inactive)
same,GI50,[45],11.2 µM (inactive)
same,GI50,[46],> 100 µM (inactive)
same,GI50,[47],> 100 µM (inactive)
same,GI50,[48],> 100 µM (inactive)
same,GI50,[49],> 100 µM (inactive)
same,GI50,[50],> 100 µM (inactive)
same,GI50,[51],> 100 µM (inactive)
same,GI50,[52],> 100 µM (inactive)
same,GI50,[53],> 100 µM (inactive)
same,GI50,[54],> 100 µM (inactive)
same,GI50,[55],> 100 µM
same,GI50,[56],> 100 µM (inactive)
same,GI50,[57],> 100 µM (inactive)
same,GI50,[58],> 100 µM (inactive)
Cn1c(=O)c2c(nc3n2CCCC(=O)N3CCCCl)n(C)c1=O,GI50,[1],> 100 µM (inactive)
same,GI50,[2],> 100 µM (inactive)
same,GI50,[3],> 100 µM (inactive)
same,GI50,[4],> 100 µM (inactive)
same,GI50,[5],> 100 µM (inactive)
same,GI50,[6],> 100 µM (inactive)
same,GI50,[7],> 100 µM (inactive)
same,GI50,[8],> 100 µM (inactive)
same,GI50,[9],> 100 µM (inactive)
same,GI50,[10],> 100 µM (inactive)
same,GI50,[11],> 100 µM (inactive)
same,GI50,[12],> 100 µM (inactive)
same,GI50,[13],> 100 µM (inactive)
same,GI50,[14],> 100 µM (inactive)
same,GI50,[15],> 100 µM (inactive)
same,GI50,[16],> 100 µM (inactive)
same,GI50,[17],> 100 µM (inactive)
same,GI50,[18],> 100 µM (inactive)
same,GI50,[19],> 100 µM (inactive)
same,GI50,[21],> 100 µM (inactive)
same,GI50,[22],> 100 µM (inactive)
same,GI50,[23],> 100 µM (inactive)
same,GI50,[24],> 100 µM (inactive)
same,GI50,[25],> 100 µM (inactive)
same,GI50,[26],> 100 µM (inactive)
same,GI50,[27],> 100 µM (inactive)
same,GI50,[28],> 100 µM (inactive)
same,GI50,[29],> 100 µM (inactive)
same,GI50,[30],> 100 µM (inactive)
same,GI50,[59],> 100 µM (inactive)
same,GI50,[31],> 100 µM (inactive)
same,GI50,[33],> 100 µM (inactive)
same,GI50,[34],> 100 µM (inactive)
same,GI50,[35],> 100 µM (inactive)
same,GI50,[36],> 100 µM (inactive)
same,GI50,[37],> 100 µM (inactive)
same,GI50,[38],> 100 µM (inactive)
same,GI50,[39],> 100 µM (inactive)
same,GI50,[40],> 100 µM (inactive)
same,GI50,[41],> 100 µM (inactive)
same,GI50,[42],> 100 µM (inactive)
same,GI50,[43],> 100 µM (inactive)
same,GI50,[44],> 100 µM (inactive)
same,GI50,[45],> 100 µM (inactive)
same,GI50,[46],> 100 µM (inactive)
same,GI50,[47],> 100 µM (inactive)
same,GI50,[48],> 100 µM (inactive)
same,GI50,[49],> 100 µM (inactive)
same,GI50,[50],> 100 µM (inactive)
same,GI50,[51],> 100 µM (inactive)
same,GI50,[52],> 100 µM (inactive)
same,GI50,[53],> 100 µM (inactive)
same,GI50,[54],> 100 µM (inactive)
same,GI50,[55],> 100 µM
same,GI50,[56],> 100 µM (inactive)
same,GI50,[57],> 100 µM (inactive)
same,GI50,[58],> 100 µM (inactive)
